This note sets out measurements from patent publication US20080227643A1, “Use of adjuvants to improve abscisic acid analog and abscisic acid derivative performance” (priority 2007, published 2008).

The subject of the experiment is tomato leaf transpiration. The experiment in a line: tomato leaf transpiration inhibition bioassay (foliar application, porometer). Type of experiment: in vivo, Tomato (variety: Rutgers). To be noted: 25 ppm ABA analog foliar applied; for Transpiration rate (% of control): 20 mL/6 plants. As for the experimental part: ABA analog effectiveness may be measured experimentally by quantifying the inhibition of transpiration in tomato leaves; this is a reliable laboratory bioassay of the level of ABA activity.
All the research studies were conducted in the greenhouse at the research farm of Valent BioSciences Corporation (Long Grove, Ill.). Tomato (variety: Rutgers) seeds were sown in 18-cell flats filled with Promix PGX (available from Premier Horticulture Inc. Quakertown, Pa.) three weeks for germination and initial growth. Plants were then transplanted into pots (18 cm in diameter and 18 cm in height) filled with Promix BX (available from Premier Horticulture Inc. Quakertown, Pa.) and grown for one or two more weeks before treatment, depending on greenhouse temperature. During growing periods, plants received daily irrigation and weekly fertilizer (1 g/L all purpose fertilizer 20-20-20, The Scotts Company, Marysville, Ohio).
Chemical solutions were prepared with distilled water. ABA analogs, 8′ acetylene-ABA, acid (PBI-524) and 8′ acetylene-ABA methyl ester (PBI-429) were available from Plant Biotechnology Institute, National Research Council of Canada (Saskatoon, Saskatchewan, Canada). 25 ppm PBI-429 or 25 ppm PBI-524 was prepared by dissolving 25 mg chemical in 1 L distilled water.
Tween 20 and Brij 98 were available from Uniqema (New Castle, Del.). Silwet L-77 was available from GE Silicones (Wilton, Conn.). Agral 90 was available from Norac Concept. Inc. (Orleans, Ontario, Canada). Kinetic was available from Setre Chemical Company (Memphis, Tenn.). Capsil was available from Aquatrols (Paulsboro, N.J.). Urea and ammonium nitrate (NH4NO3) were available from Sigma-Aldrich (St. Louis, Mo.). Ethyl lactate was available from Fluka Chemie (GmbH, Buchs, Germany). Surfactant was added to 250-ppm ABA or 25-ppm ABA analogs at the concentration of 0.05% or 0.5% (v/v). Since Brij 98 was a waxy substance and difficult to dissolve in water, a stock solution of 25% Brij 98 was prepared by dissolving 25 g Brij 98 in 75 g ethyl lactate and this solution was easily dissolve in water.
Chemical solutions were foliar applied to tomato plant leaves at the rate of 20 mL/6 plants. Plants were then placed in a transparent chamber with humidity controlled at relative humidity 40 to 60%. […] The transpiration rate of each treatment was calculated as the percentage of that of control at each day to reduce day-to-day variation caused by changes of environmental condition such as light intensity and temperature.
All experiments were randomized complete block experimental design. Data were analyzed by analysis of variance. Duncan's new multiple range tests at α=0.05 were used for mean separations.

The mark [1] stands for this setting: average over 7 days (days 1, 2, 3, 4, 7).

Several values for one entry are separate records, joined by “and”; a condition that tells them apart may be missing. Identical values can stand only once.

Consider `C#CC1(C)CC(=O)C=C(C)C1(O)/C=C/C(C)=C\C(=O)OC` (stereo not shown) [PBI-429, 8′ acetylene-ABA methyl ester], for which the “Transpiration rate (% of control)” value is, setting by setting: (1 day after treatment) 102 % of control and 81 % of control and 77 % of control; (2 days after treatment) 87 % of control and 64 % of control and 60 % of control; (3 days after treatment) 86 % of control and 69 % of control and 71 % of control; (4 days after treatment) 77.52 % of control and 78 % of control and 81 % of control and 77 % of control; (7 days after treatment) 95 % of control and 73 % of control. Moreover, the “Transpiration rate (% of control), Average” value by setting is: (average of days 1, 2, 3 (Table 11)) 70 % of control; under setting [1], 74 % of control.

Turning to `C#CC1(C)CC(=O)C=C(C)C1(O)C=CC(C)=CC(=O)O` (stereo not shown) [PBI-524, 8′ acetylene-ABA, acid], the “Transpiration rate (% of control)” value is 95 % of control and 81 % of control (1 day after treatment); 87 % of control and 63 % of control (2 days after treatment); 93 % of control and 69 % of control (3 days after treatment); 92 % of control and 79 % of control (4 days after treatment); 101 % of control and 91 % of control (7 days after treatment). For the same compound, under setting [1], the “Transpiration rate (% of control), Average” value is reported as 77 % of control.
